According to ChEMBL document CHEMBL5338712, “Influence of chain length on the anticancer activity of the antimicrobial peptide CAMEL with fatty acid modification” (Eur J Med Chem, 2022):
≈ marks a conversion by molar mass, not a printed value. Calls of active or inactive are those of the source. The rule behind the calls is not given here. Where a SMILES comes first, the peptide text is derived from it. The star is where a group is joined. Palmitoyl = CCCCCCCCCCCCCCCC(=O)*; Lauroyl = CCCCCCCCCCCC(=O)*; Octanoyl = CCCCCCCC(=O)*

Tests used:
[1] = Toxicity in C57BL/6 […] mouse implanted with mouse B16-F10 cells assessed as animal death administered intratumorally; format: cell-based; conditions: in vivo, other, route it(Intratumoral)
B16-F10 [2] = assay: Induction of apoptosis in mouse B16-F10 cells assessed as decrease in ATP level; format: functional, cell-based
Escherichia coli = assay: Antibacterial activity against Escherichia coli ATCC 25922 assessed as reduction in bacterial growth measured for 18 hrs by serial dilution method; format: functional
B16-F10 [3] = assay: Cytotoxicity against mouse B16-F10 cells assessed as reduction in cell viability measured after 1 hrs by MTT assay; format: functional, cell-based; conditions: dose 1.25-20 µM
B16-F10 [4] = assay: Induction of cell cycle arrest in mouse B16-F10 cells assessed as accumulation at G0/G1 phase at 10 uM and measured after 24 hrs PI staining based by flow cytometry; format: functional
B16-F10 [5] = assay: Cytotoxicity against mouse B16-F10 cells assessed as reduction in cell viability at 1.25 to 20 uM measured after 24 hrs by MTT assay; format: functional, cell-based; conditions: dose 1.25-20 µM
B16-F10 [6] = assay: Cytotoxicity against mouse B16-F10 cells assessed as induction of cell death measured for 4 to 24 hrs by MTT assay; format: functional, cell-based; conditions: time 4-24 hrs
B16-F10 [7] = assay: Induction of cell membrane disruption in mouse B16-F10 cells at 20 uM measured for 30 mins by PI staining based microplate reader assay
B16-F10 [8] = assay: Induction of morphological changes in mouse B16-F10 cells assessed as cell bursting at 20 uM incubated for 30 mins by microscopic analysis; format: functional, cell-based
Staphylococcus aureus = assay: Antibacterial activity against Staphylococcus aureus ATCC […] assessed as reduction in bacterial growth measured for 18 hrs by serial dilution method; format: functional
B16-F10 [9] = assay: Induction of morphological changes in mouse B16-F10 cells assessed as cell rounding at 20 uM incubated for 30 mins by microscopic analysis; format: functional, cell-based
[10] = Self-assembly behavior of compound in saline solution assessed as critical micelle concentration by spectrophotometer analysis; format: physicochemical; conditions: buffer
B16-F10 [11] = assay: Induction of mitochondrial membrane potential loss in mouse B16-F10 cells at 10 uM by flow cytometry analysis; format: functional, cell-based; conditions: time 0.5-4 hrs, TDE = time-dependent effect
B16-F10 [12] = assay: Induction of necroptosis in mouse B16-F10 cells assessed as increase in ROS level; format: functional, cell-based
B16-F10 [13] = assay: Induction of ROS production in mouse B16-F10 cells at 10 uM measured for 0.5 to 4 hrs by MitoSOX red dye based microplate reader analysis; format: functional, cell-based; conditions: time 0.5-4 hrs
B16-F10 [14] = assay: Induction of necroptosis in mouse B16-F10 cells assessed as cell death at 5 to 20 uM measured for 4 to 24 hrs in presence of Nec-1; format: functional, cell-based; conditions: dose 5-20 µM, time 4-24 hrs
trypsin = trypsin (Homo sapiens, UniProt P07477+P07478+P35030); assay: Stability of compound assessed as trypsin (unknown origin)-mediated compound degradation measured upto 6 hrs by RP-HPLC analysis; format: ADME, protein assay; conditions: trypsin (enzyme solution), read-out: Drug degradation
B16-F10 [15] = assay: Membrano-lytic activity in mouse B16-F10 cell membrane at 1.25 to 20 uM measured after 4 hr by LDH leakage assay; format: cell-based; conditions: dose 1.25-20 µM
B16-F10 [16] = assay: Induction of morphological changes in mouse B16-F10 cells assessed as cell swelling at 20 uM incubated for 30 mins by microscopic analysis; format: functional, cell-based
B16-F10 [17] = assay: Induction of ROS production in mouse B16-F10 cells at 10 uM measured for 0.5 to 4 hrs by DCFH-DA dye based microplate reader analysis; format: functional, cell-based; conditions: time 0.5-4 hrs
B16-F10 [18] = assay: Antiproliferative activity against mouse B16-F10 cells assessed as inhibition of cell viability by measuring ATP level at 10 uM measured for 4 to 24 hrs; format: functional, cell-based; conditions: time 4-24 hrs
B16-F10 [19] = assay: Antitumor activity against mouse B16-F10 cells implanted in intratumorally dosed C57BL/6 mouse assessed as reduction in tumor volume administered for 3 days by vernier caliper method; format: functional, organism-based; conditions: time 3.0 day
B16-F10 [20] = assay: Membrano-lytic activity in mouse B16-F10 cell membrane measured after 1 hr by LDH leakage assay; format: cell-based; conditions: dose 1.25-20 µM
B16-F10 [21] = assay: Induction of apoptosis in mouse B16-F10 cells assessed as activation of caspase-3 incubated for 24 hrs by microplate reader analysis; format: functional, cell-based
B16-F10 [22] = assay: Induction of necrotic cell death in mouse B16-F10 at 10 uM measured after 1 to 24 hrs; format: functional, cell-based; conditions: time 1-24 hrs
B16-F10 [23] = assay: Induction of mitochondrial membrane potential loss in mouse B16-F10 cells assessed as decrease in fluorescence intensity at 10 uM measured at 0.5 to 4 hrs by flow cytometry analysis; format: functional, cell-based; conditions: time 0.5-4 hrs
B16-F10 [24] = assay: Induction of cell membrane disruption in mouse B16-F10 cells at 20 uM by PI staining based microplate reader assay; conditions: time 30.0 min, TDE = time-dependent effect
B16-F10 [25] = assay: Membrano-lytic activity in mouse B16-F10 cell membrane at 20 uM measured at 1 hr by LDH leakage assay; format: cell-based
B16-F10 [26] = assay: Membrano-lytic activity in mouse B16-F10 cell membrane at 1.25 to 20 uM measured after 1 hr by LDH leakage assay; format: cell-based; conditions: dose 1.25-20 µM
B16-F10 [27] = assay: Disruption of membrane integrity in mouse B16-F10 cells at 10 uM measured at 4 to 24 hrs by propidium iodide staining based laser scanning microscopic analysis; format: cell-based; conditions: time 4-24 hrs
B16-F10 [28] = assay: Cytotoxicity against mouse B16-F10 cells assessed as reduction in cell viability at 1.25 to 20 uM by MTT assay; format: functional, cell-based; conditions: dose 1.25-20 µM, time 1-72 hrs, TDE = time-dependent effect
B16-F10 [29] = assay: Membrano-lytic activity in mouse B16-F10 cell membrane at 20 uM by LDH leakage assay; format: cell-based; conditions: time 0.5-4 hrs, TDE = time-dependent effect
B16-F10 [30] = assay: Cytotoxicity against mouse B16-F10 cells assessed as reduction in cell viability at 1.25 to 20 uM measured after 72 hrs by MTT assay; format: functional, cell-based; conditions: dose 1.25-20 µM
B16-F10 [31] = assay: Membrano-lytic activity in mouse B16-F10 cell membrane at 20 uM measured at 0.5 to 4 hrs by LDH leakage assay; format: cell-based; conditions: time 0.5-4 hrs
B16-F10 [32] = assay: Membrano-lytic activity in mouse B16-F10 cell membrane at 20 uM measured after 0.5 hr by LDH leakage assay; format: cell-based
B16-F10 [33] = assay: Disruption of membrane integrity in mouse B16-F10 cells at 10 uM measured after 1 hr by propidium iodide staining based laser scanning microscopic analysis; format: cell-based
B16-F10 [34] = assay: Induction of mitochondrial membrane potential loss in mouse B16-F10 cells assessed as decrease in fluorescence intensity at 10 uM measured at 4 hrs by flow cytometry analysis; format: functional, cell-based

| Compound | Activity [1] | Activity (B16-F10 [2]) | MIC (Escherichia coli) | Activity (B16-F10 [3]) | Activity (B16-F10 [4]) | Activity (B16-F10 [5]) | Activity (B16-F10 [6]) | Activity (B16-F10 [7]) | Activity (B16-F10 [8]) | MIC (Staphylococcus aureus) | Activity (B16-F10 [9]) | Activity (B16-F10 [12]) | Activity (B16-F10 [13]) | Activity (B16-F10 [14]) | metabolised at 6 h (trypsin) | Activity (B16-F10 [16]) | Activity (B16-F10 [17]) | Activity (B16-F10 [18]) | Activity (B16-F10 [19]) | Activity (B16-F10 [20]) | other results |
| --- | --- | --- | --- | --- | --- | --- | --- | --- | --- | --- | --- | --- | --- | --- | --- | --- | --- | --- | --- | --- | --- |
| CCCCCCCCCCCC(=O)N[C@@H](CCCCN)C(=O)N[C@@H](Cc1c[nH]c2ccccc12)C(=O)N[C@@H](CCCCN)C(=O)N[C@@H](CC(C)C)C(=O)N[C@@H](Cc1ccccc1)C(=O)N[C@@H](CCCCN)C(=O)N[C@@H](CCCCN)C(=O)N[C@H](C(=O)NCC(=O)N[C@@H](C)C(=O)N[C@H](C(=O)N[C@@H](CC(C)C)C(=O)N[C@@H](CCCCN)C(=O)N[C@H](C(=O)N[C@@H](CC(C)C)C(N)=O)C(C)C)C(C)C)[C@@H](C)CC (Lauroyl-KWKLFKKIGAVLKVL-NH2) | Non-Toxic | inactive | 8 µM (≈ 15.6 µg/mL) | Dose-Dependent Effect | inactive | Active | inactive | Active | Active | 8 µM (≈ 15.6 µg/mL) | Active | Active | Active | Active | 18.9% | Active | Active | Active | Active | Dose-Dependent Effect | CMC [10]: 7.16 µM; Activity (B16-F10 [11]): Tde; Activity (B16-F10 [15]): Active; Activity (B16-F10 [21]): inactive; Activity (B16-F10 [22]): Active; Activity (B16-F10 [23]): Active; Activity (B16-F10 [24]): Tde; Activity (B16-F10 [25]): Active |
| CCCCCCCC(=O)N[C@@H](CCCCN)C(=O)N[C@@H](Cc1c[nH]c2ccccc12)C(=O)N[C@@H](CCCCN)C(=O)N[C@@H](CC(C)C)C(=O)N[C@@H](Cc1ccccc1)C(=O)N[C@@H](CCCCN)C(=O)N[C@@H](CCCCN)C(=O)N[C@H](C(=O)NCC(=O)N[C@@H](C)C(=O)N[C@H](C(=O)N[C@@H](CC(C)C)C(=O)N[C@@H](CCCCN)C(=O)N[C@H](C(=O)N[C@@H](CC(C)C)C(N)=O)C(C)C)C(C)C)[C@@H](C)CC (Octanoyl-KWKLFKKIGAVLKVL-NH2) |  |  | 8 µM (≈ 15.2 µg/mL) | Dose-Dependent Effect |  | Active |  |  |  | 4 µM (≈ 7.59 µg/mL) |  |  |  |  | 70.2% |  |  |  |  | Dose-Dependent Effect | Activity (B16-F10 [26]): Active |
| CCCCCCCCCCCCCCCC(=O)N[C@@H](CCCCN)C(=O)N[C@@H](Cc1c[nH]c2ccccc12)C(=O)N[C@@H](CCCCN)C(=O)N[C@@H](CC(C)C)C(=O)N[C@@H](Cc1ccccc1)C(=O)N[C@@H](CCCCN)C(=O)N[C@@H](CCCCN)C(=O)N[C@H](C(=O)NCC(=O)N[C@@H](C)C(=O)N[C@H](C(=O)N[C@@H](CC(C)C)C(=O)N[C@@H](CCCCN)C(=O)N[C@H](C(=O)N[C@@H](CC(C)C)C(N)=O)C(C)C)C(C)C)[C@@H](C)CC (Palmitoyl-KWKLFKKIGAVLKVL-NH2) | Non-Toxic | inactive | > 128 µM | Dose-Dependent Effect | inactive | Active | inactive | Active | Active | > 128 µM | Active | Active | Active | Active | 8.7% | Active | Active | Active | Active | Dose-Dependent Effect | Activity (B16-F10 [27]): Active; CMC [10]: 4.95 µM; Activity (B16-F10 [11]): Tde; Activity (B16-F10 [28]): Tde; Activity (B16-F10 [21]): inactive; Activity (B16-F10 [26]): Active; Activity (B16-F10 [22]): Active; Activity (B16-F10 [23]): Active; Activity (B16-F10 [29]): Tde; Activity (B16-F10 [30]): Active |
| H-KWKLFKKIGAVLKVL-NH2 | Non-Toxic | inactive | 32 µM | Dose-Dependent Effect | inactive | Active | inactive | Active | Active | 4 µM | Active | Active | Active | Active | 100% | Active | Active | Active | Active | Dose-Dependent Effect | Activity (B16-F10 [31]): inactive; Activity (B16-F10 [32]): Active; Activity (B16-F10 [15]): Active; Activity (B16-F10 [33]): Active; Activity (B16-F10 [21]): inactive; Activity (B16-F10 [22]): Active; Activity (B16-F10 [23]): Active; Activity (B16-F10 [34]): inactive; Activity (B16-F10 [24]): Tde |
